Drawing on patent publication US10981911B2, “Imidazopyrrolopyridine as inhibitors of the JAK family of kinases” (Janssen Pharmaceutica NV, priority 2016, dated 2021), this text covers concentration and IC50 for 10 compounds.

Where two headings read alike, the source gives them in different places.

A short description of data set [1]: In vivo p.o. dosing: plasma and colon tissue concentrations (Protocols 1 and 2). As to conditions: female, C57BL/6, mouse, po, mice, 25 mg/kg p.o. Also on record: species or system female C57BL/6 mice. Here is the method:
These protocols are described below under the heading In vivo Studies. Three non-fasted female C57BL/6 mice were orally administered test compound at a dose of 25 mg/kg p.o. as a solution in 20% hydroxypropyl-beta-cyclodextrin (HPβCD) at a dose volume of 5 mL/kg. Blood samples were collected at 0.5, 2, and 4 h post dose via retro-orbital bleed or venipuncture of the dorsal metatarsal vein. Blood samples were collected into tubes containing anticoagulant (Heparin-Na) and placed on wet ice. The plasma fraction was separated by centrifugation and frozen at −20° C. for up to 4 h and −80° C. after 4 h unless analyzed shortly after sample collection. Colon samples were collected at 4 h post dose. […] The colon was further washed by putting it in 5 mL of saline and shaken for 5 seconds. The colon sample was then patted dry, weighed, and homogenized as 1 part tissue (g) to 4 parts HPLC grade water (mL). Concentrations of the compound in plasma and colon homogenate were determined using a qualified liquid chromatography-triple quadrupole mass spectrometry (LC-MS/MS) method. […] Three non-fasted female C57BL/6 mice were orally administered test compound at a dose of 25 mg/kg p.o. as a solution in 20% HPβCD at a dose volume of 5 mL/kg. Blood samples were collected at 0.5, 2, and 4 h post dose via retro-orbital bleed or dorsal metatarsal vein. Blood samples were collected into tubes containing anticoagulant (Heparin-Na) and placed on wet ice. The plasma fraction was separated by centrifugation and frozen at −20° C. for up to 4 h and −80° C. after 4 h unless analyzed shortly after sample collection. Colon samples were collected at 4 h post dose. From 2 cm below the cecum, a 4 cm sample of the colon was dissected, cut open on the longitudinal axis, and the solid contents removed by flushing with 2 mL of saline. The colon was further washed by putting it in 5 mL of saline and shaken for 5 seconds. The colon sample was then patted dry, weighed, and homogenized as 1 part tissue (g) to 4 parts HPLC grade water (mL). Concentrations of the compound in plasma and colon homogenate were determined using a qualified liquid chromatography-triple quadrupole mass spectrometry (LC-MS/MS) method.

Data set [2] has as its system GM-CSF pSTAT5 (JAK2/JAK2). Nature of the data set: GM-CSF pSTAT5 (JAK2/JAK2) cellular assay (AlphaLISA, PBMCs). The data set is classed as cell-based. The settings on record: PBMC, GM-CSF at 11 pg/mL. The procedure: The AlphaLISA assay (based on Alpha Technology from PerkinElmer) was performed by first plating freshly thawed PBMCs (Biological Specialty Corporation) in 384-well plates at 30,000 cells per 4 µL per well in HBSS containing 0.1% IgG-free, protease-free BSA (Jackson ImmunoResearch Cat. No. 001-000-161). The cells were then treated with 2 μL/well of compounds diluted in DMSO at half-log titrated concentrations, with a highest test concentration of […] and 0.5% final DMSO concentration, for thirty minutes at 37° C. Next, the cells were stimulated with 2 μL/well of GM-CSF (R&D Systems Cat. No. 215-GM-050) at 11 pg/mL for fifteen minutes at 37° C. The cellular reactions were terminated by the addition of 2 µL/well of lysis buffer (PerkinElmer Cat. No. ALSU-PST5-A10K) followed by an incubation of five minutes at room temperature. 5 μL/well of acceptor mix (PerkinElmer Cat. No. ALSU-PST5-A10K) was added to the cells and incubated in the dark for one hour at room temperature. Then, 5 μL/well of donor mix (PerkinElmer Cat. No. ALSU-PST5-A10K) was added to the cells and incubated in the dark overnight at room temperature. Finally, the plates were read on a PerkinElmer EnVision for detection of the time-resolved fluorescence signal. The percentage of GM-CSF-dependent pSTAT5 inhibition was determined at the compound test concentrations; and for each compound, a dose curve was generated and the IC50 was calculated. Compound IC50 was calculated by nonlinear regression, sigmoidal dose response analysis of the half-log dilution titration curve of the compound concentration vs. Alpha signal. The term “Alpha” is defined in the IL-2 pSTAT5 (JAK1/JAK3) cellular assay description.
A general note: In Alpha technology, singlet oxygen from a donor bead excites a nearby acceptor bead.

The mark [3] stands for this setting: colon, read-out: Colon Concentration After p.o. Dosing, Mean.
Where [4] appears, read: plasma, read-out: Plasma Concentration After p.o. Dosing, Mean.

Regarding `CC(C)(O)CNC(=O)Cc1nc2cnc3[nH]ccc3c2n1[C@H]1CC[C@H](CC#N)CC1` [Ex. 1, 2-(1-((1r,4r)-4-(Cyanomethyl)cyclohexyl)-1,6-dihydroimidazo[4,5-d]pyrrolo[2,3-b]pyridin-2-yl)-N-(2-hydroxy-2-methylpropyl)acetamide], the concentration at 4 h in data set [1] (setting [3]) worked out at 8590 ng/g. Moreover, in data set [1] (setting [4]), the concentration at 0.5 h came to 13.4 ng/mL, the concentration at 2 h was determined as 6.1 ng/mL and the concentration at 4 h was found to be 3.3 ng/mL.
As a reminder, the IC50 is the concentration that inhibits the measured activity by half. Read a low IC50 as higher potency. With `N#CCC1CCC(n2c(-c3c[nH]cn3)nc3cnc4[nH]ccc4c32)CC1` (stereo not shown) [Ex. 2, 2-((1r,4r)-4-(2-(1H-Imidazol-4-yl)imidazo[4,5-d]pyrrolo[2,3-b]pyridin-1(6H)-yl)cyclohexyl)acetonitrile], the IC50 in data set [2] was 61 nM. Moreover, the concentration at 4 h in data set [1] (setting [3]) is 7600 ng/g. Moreover, in data set [1] (setting [4]), the concentration at 0.5 h was 24.5 ng/mL, the concentration at 2 h was determined as 4.2 ng/mL and the concentration at 4 h worked out at 1.3 ng/mL.
Take `N#CC[C@H]1CC[C@H](n2c(CC(=O)NCC3CC3)nc3cnc4[nH]ccc4c32)CC1` [Ex. 3, 2-(1-((1r,4r)-4-(Cyanomethyl)cyclohexyl)-1,6-dihydroimidazo[4,5-d]pyrrolo[2,3-b]pyridin-2-yl)-N-(cyclopropylmethyl)acetamide]: the IC50 in data set [2] turned out to be 21.9 nM. In data set [1] (setting [3]), the concentration at 4 h worked out at 2150 ng/g. Further, in data set [1] (setting [4]), the concentration at 0.5 h worked out at 41.4 ng/mL, the concentration at 2 h stood at 3.9 ng/mL and the concentration at 4 h was found to be 1.5 ng/mL.
Turning to `N#CCCNC(=O)Cc1nc2cnc3[nH]ccc3c2n1[C@H]1CC[C@H](CC#N)CC1` [Ex. 4, N-(2-Cyanoethyl)-2-(1-((1r,4r)-4-(cyanomethyl)cyclohexyl)-1,6-dihydroimidazo[4,5-d]pyrrolo[2,3-b]pyridin-2-yl)acetamide], inhibition in data set [2] was half-maximal at 119 nM (IC50). Moreover, the concentration at 4 h in data set [1] (setting [3]) stood at 4450 ng/g. Moreover, in data set [1] (setting [4]), the concentration at 0.5 h stood at 12.9 ng/mL, the concentration at 2 h turned out to be 7.5 ng/mL and the concentration at 4 h came out at 3.3 ng/mL.
In turn, `N#CC[C@H]1CC[C@H](n2c(CC(=O)NC3CCOCC3)nc3cnc4[nH]ccc4c32)CC1` [Ex. 5, 2-(1-((1r,4r)-4-(Cyanomethyl)cyclohexyl)-1,6-dihydroimidazo[4,5-d]pyrrolo[2,3-b]pyridin-2-yl)-N-(tetrahydro-2H-pyran-4-yl)acetamide] came in with a concentration for half-maximal inhibition (IC50) in data set [2] of 28.9 nM. In addition, in data set [1] (setting [3]), the concentration at 4 h came out at 5330 ng/g. In data set [1] (setting [4]), the concentration at 0.5 h came out at 31.9 ng/mL, the concentration at 2 h stood at 8.8 ng/mL and the concentration at 4 h was 6 ng/mL.
As to `N#CC[C@H]1CC[C@H](n2c(CC(=O)NCC3CCOCC3)nc3cnc4[nH]ccc4c32)CC1` [Ex. 10, 2-(1-((1r,4r)-4-(Cyanomethyl)cyclohexyl)-1,6-dihydroimidazo[4,5-d]pyrrolo[2,3-b]pyridin-2-yl)-N-((tetrahydro-2H-pyran-4-yl)methyl)acetamide], the IC50 in data set [2] stood at 25.1 nM. The concentration at 4 h in data set [1] (setting [3]) came out at 11700 ng/g. For the same compound, in data set [1] (setting [4]), the concentration at 0.5 h stood at 18.8 ng/mL, the concentration at 2 h came to 3 ng/mL and the concentration at 4 h worked out at 1.7 ng/mL.
In turn, `CC(C)(C#N)CNC(=O)Cc1nc2cnc3[nH]ccc3c2n1[C@H]1CC[C@H](CC#N)CC1` [Ex. 22, N-(2-Cyano-2-methylpropyl)-2-(1-((1r,4r)-4-(cyanomethyl)cyclohexyl)-1,6-dihydroimidazo[4,5-d]pyrrolo[2,3-b]pyridin-2-yl)acetamide] gave an IC50 in data set [2] of 67.3 nM. Besides, the concentration at 4 h in data set [1] (setting [3]) stood at 12000 ng/g. In addition, in data set [1] (setting [4]), the concentration at 0.5 h was found to be 47 ng/mL, the concentration at 2 h was 9.6 ng/mL and the concentration at 4 h turned out to be 5 ng/mL.
For `N#CC[C@H]1CC[C@H](n2c(CC(=O)NCC3(O)CCC3)nc3cnc4[nH]ccc4c32)CC1` [Ex. 34, 2-(1-((1r,4r)-4-(Cyanomethyl)cyclohexyl)-1,6-dihydroimidazo[4,5-d]pyrrolo[2,3-b]pyridin-2-yl)-N-((1-hydroxycyclobutyl)methyl)acetamide], in that order: 33.8 nM, 7400 ng/g, 43.1 ng/mL, 5.4 ng/mL and 2.6 ng/mL.
On to `N#CCC12CCC(NC(=O)Cc3nc4cnc5[nH]ccc5c4n3[C@H]3CC[C@H](CC#N)CC3)(CC1)C2` [Ex. 55, N-(4-(Cyanomethyl)bicyclo[2.2.1]heptan-1-yl)-2-(1-((1r,4r)-4-(cyanomethyl)cyclohexyl)-1,6-dihydroimidazo[4,5-d]pyrrolo[2,3-b]pyridin-2-yl)acetamide], for which, in data set [2], the IC50 stood at 44.6 nM. In addition, in data set [1] (setting [3]), the concentration at 4 h was 3000 ng/g. Besides, in data set [1] (setting [4]), the concentration at 0.5 h was 26.6 ng/mL, the concentration at 2 h was 3.2 ng/mL and the concentration at 4 h worked out at 3.1 ng/mL.
In data set [2], `N#CC[C@H]1CC[C@H](n2c(CC(=O)NCC3(O)CC3)nc3cnc4[nH]ccc4c32)CC1` [Ex. 85, 2-(1-((1r,4r)-4-(Cyanomethyl)cyclohexyl)-1,6-dihydroimidazo[4,5-d]pyrrolo[2,3-b]pyridin-2-yl)-N-((1-hydroxycyclopropyl)methyl)acetamide] came in with a 50% inhibitory concentration (IC50) of 75.4 nM. For the same compound, the concentration at 4 h in data set [1] (setting [3]) is 5880 ng/g. Besides, in data set [1] (setting [4]), the concentration at 0.5 h was found to be 15.6 ng/mL, the concentration at 2 h was 4.2 ng/mL and the concentration at 4 h was 2.3 ng/mL.
